Results reported in patent publication US20250090480A1, “UNIQUE ANALOGS OF NATURAL LIGNANS USEFUL FOR TREATING TRIPLE NEGATIVE BREAST CANCER” (University of Kentucky Research Foundation, priority 2023, published 2025).

Experiments:
[1] = tested on: TNBC cell lines MDA-MB-231, MDA-MB-468, SUM159; experiment: MTT cell viability assay, 24 h exposure, three TNBC cell lines; assay type: cell-based
Procedure: Cell Viability Assay for Compounds 1-8: The cytotoxicity for compounds 1-8 was assessed in three Triple Negative Breast Cancer cell lines: MDA-MB-231, MDA-MB-468, an SUM159. Cells were grown to 80% confluency in T75 flasks. Media was discarded and trypsin added for 5 minutes to detach cells. Media was added to neutralize the trypsin and mixture was transferred to centrifuge tube. After centrifugation at 2000 RPM for 5 minutes, the pellet was washed with PBS and resuspended in 2 mL appropriate media. Cell density was assessed via hemocytometer and solution diluted to 40,000 cells/mL. A 96-well clear bottom plate was prepared by adding media to rows 1 and 8 and columns 1, 2, 11, and 12 to prevent evaporation from impacting sample wells. Cells were plated in the inner wells with 100 μL per well (4,000 cells/well). Plates were placed in the incubator at 37° C. and 5-10% CO2 overnight to allow cells to acclimate and adhere.
Compounds 1-8 were prepared as 80 mM stock solutions in DMSO. The stock was diluted 20 μL to 4 mL with the appropriate media to yield a new stock concentration of 400 μM and DMSO concentration of 0.5% v/v. This stock was used for six serial dilutions (1/2×) to obtain a range of concentrations from 6.25 to 400 μM. […]
Plates were removed from the incubator and treatment solutions removed. […] Plates were then read on a Biotek Synergy H1 Plate Reader at 570 nm (peak absorbance). […]

SUM159 = experiment: Colony formation assay in SUM159; assay type: cell-based; settings: SUM159, half and full IC50 concentrations, 6 days
Procedure: The ability of compounds 1, 7A, and 7B to prevent colony formation was assessed in SUM159, a Triple Negative Breast Cancer cell line. Cells were grown to 80% confluency in T75 flasks in DMEM supplemented with 10% FBS, 1% amphotericin, 1% penicillin/streptomycin, and 5 μg/mL insulin. Media was discarded and trypsin added for 5 minutes to detach cells. Media was added to neutralize the trypsin and mixture was transferred to centrifuge tube. After centrifugation at 2000 RPM for 5 minutes, the pellet was washed with PBS and resuspended in 2 mL of above media. Cell density was assessed via hemocytometer and solution diluted to 2,000 cells/mL. Cells were plated in 6-well clear bottom plates at 2,000 cells/well. Treatment conditions included control (0.5% DMSO), and compounds 1, 7A, and 7B at both half and full IC5. concentrations, All treatments were plated in triplicate for a total of 21 wells used. Plates were placed in the incubator at 37° C. and 5-10% CO2 for six days. […]
(§1) To further characterize the improved bioactivity of compounds 7A and 7B to compound 1, colonogenic and mammmosphere formation assays were performed in TNBC cell line SUM159 at full and half IC50 values (FIG. 7A-7B). […] Using colony formation assay, we evaluated the antiproliferative effects of 7A in SUM159 cells. […]

SUM159 mammosphere = experiment: Mammosphere formation assay in SUM159; assay type: cell-based; settings: SUM159, half or full IC50 concentration, 6 days
Procedure: The ability of Compounds 1, 7A, and 7B to prevent mammosphere formation was assessed in SUM159, a Triple Negative Breast Cancer cell line. Cells were grown to 80% confluency in T75 flasks in DMEM supplemented with 10% FBS, 1% amphotericin, 1% penicillin/streptomycin, and 5 μg/mL insulin, Media was discarded and trypsin added for 5 minutes to detach cells. Media was added to neutralize the trypsin and mixture was transferred to centrifuge tube. After centrifugation at 2000 RPM for 5 minutes, the pellet was washed with PBS and resuspended in 2 mL mammosphere media. Mammosphere media consists of MammoCult Human Medium (StemCell Technologies) supplemented with Heparin ([…], StermCellTechnologies) and Hydrocortisone (0.48 μg/ml, StemCell Technologies). Cell density was assessed via hemocytometer and solution diluted to 8,000 cells/mL in mammosphere media. A 24-well ultra-low-attachment clear bottom plate was prepared. Cells were plated in all wells with 500 μL per well (4,000 cells/well). […]
as §1

[2] = tested on: TNBC cells, including MDA-MB-231 and MDA-MB-468 cells; settings: 24 h; read-out: activity of machilin D (comparison value); cited from earlier work

| IC50 ([1]; 24 h exposure, range across MDA-MB-468, MDA-MB-231, SUM159, diastereomeric mixture) | Molecule | cytotoxicity (IC50) comparison of diastereomers ([1]; MTT, all three TNBC cell lines) | colony formation (SUM159) | mammosphere growth (SUM159 mammosphere) | IC50 [2] |
| --- | --- | --- | --- | --- | --- |
| – | C/C=C/c1ccc(O[C@@H](C)[C@@H](OCC(C)C)c2ccc(O)c(OC)c2)c(OC)c1 (racemic) [Compound 7A] | significantly improved cytotoxicity values over 7B | colony formation was inhibited | effective inhibition | – |
| – | C/C=C/c1ccc(O[C@@H](C)[C@@H](O)c2ccc(O)c(OC)c2)c(OC)c1 [machilin D] | – | – | – | ~100 µM |
| 167 to 180 µM | machilin C/D [Compound 1] | – | slow colony formation | slow colony formation and mammosphere growth | – |
